Compound Cc1coc2c1C(=O)C(=O)c1c-2ccc2c(C)cccc12 has a solubility (mole fraction) (in DMF, 278.15 K) of 0.000919, a solubility (mole fraction) (in DMF, 283.15 K) of 0.00106 and a solubility (mole fraction) (in DMF, 288.15 K) of 0.00125. The solubility (mole fraction) (in DMF, 293.15 K) was 0.00146, the solubility (mole fraction) (in DMF, 298.15 K) was 0.00169 and the solubility (mole fraction) (in DMF, 303.15 K) was 0.00193. It also gave a solubility (mole fraction) (in DMF, 308.15 K) of 0.0022, a solubility (mole fraction) (in DMF, 313.15 K) of 0.00249 and a solubility (mole fraction) (in DMF, 318.15 K) of 0.00288. The solubility (mole fraction) (in DMF, 323.15 K) was 0.00335, the solubility (mole fraction) (in acetone, 278.15 K) was 0.00103 and the solubility (mole fraction) (in acetone, 283.15 K) was 0.0012. The solubility (mole fraction) (in acetone, 288.15 K) was 0.0014, the solubility (mole fraction) (in acetone, 293.15 K) was 0.00164 and the solubility (mole fraction) (in acetone, 298.15 K) was 0.00194. For the same compound, the solubility (mole fraction) (in acetone, 303.15 K) was 0.00221, the solubility (mole fraction) (in acetone, 308.15 K) was 0.00253 and the solubility (mole fraction) (in acetone, 313.15 K) was 0.00287. It also gave a solubility (mole fraction) (in acetone, 318.15 K) of 0.00324, a solubility (mole fraction) (in acetone, 323.15 K) of 0.0036 and a solubility (mole fraction) (in ethanol, 278.15 K) of 6.4e-05. For the same compound, the solubility (mole fraction) (in ethanol, 283.15 K) was 8.08e-05, the solubility (mole fraction) (in ethanol, 288.15 K) was 9.82e-05 and the solubility (mole fraction) (in ethanol, 293.15 K) was 0.00012. It also gave a solubility (mole fraction) (in ethanol, 298.15 K) of 0.000144, a solubility (mole fraction) (in ethanol, 303.15 K) of 0.000167 and a solubility (mole fraction) (in ethanol, 308.15 K) of 0.000198. The solubility (mole fraction) (in ethanol, 313.15 K) was 0.000233, the solubility (mole fraction) (in ethanol, 318.15 K) was 0.000275 and the solubility (mole fraction) (in ethanol, 323.15 K) was 0.000332. For the same compound, the solubility (mole fraction) (in ethylene glycol, 278.15 K) was 8.39e-05, the solubility (mole fraction) (in ethylene glycol, 283.15 K) was 9.79e-05 and the solubility (mole fraction) (in ethylene glycol, 288.15 K) was 0.000114. It also gave a solubility (mole fraction) (in ethylene glycol, 293.15 K) of 0.000132, a solubility (mole fraction) (in ethylene glycol, 298.15 K) of 0.000152 and a solubility (mole fraction) (in ethylene glycol, 303.15 K) of 0.000175. The solubility (mole fraction) (in ethylene glycol, 308.15 K) was 0.000201, the solubility (mole fraction) (in ethylene glycol, 313.15 K) was 0.000232 and the solubility (mole fraction) (in ethylene glycol, 318.15 K) was 0.000269. For the same compound, the solubility (mole fraction) (in ethylene glycol, 323.15 K) was 0.000317, the solubility (mole fraction) (in isopropanol, 278.15 K) was 0.00029 and the solubility (mole fraction) (in isopropanol, 283.15 K) was 0.000334. It also gave a solubility (mole fraction) (in isopropanol, 288.15 K) of 0.000395, a solubility (mole fraction) (in isopropanol, 293.15 K) of 0.000456 and a solubility (mole fraction) (in isopropanol, 298.15 K) of 0.000535. It also gave a solubility (mole fraction) (in isopropanol, 303.15 K) of 0.000626, a solubility (mole fraction) (in isopropanol, 308.15 K) of 0.000729 and a solubility (mole fraction) (in isopropanol, 313.15 K) of 0.000849. It also gave a solubility (mole fraction) (in isopropanol, 318.15 K) of 0.00101, a solubility (mole fraction) (in isopropanol, 323.15 K) of 0.0012 and a solubility (mole fraction) (in methanol, 278.15 K) of 5.56e-05. For the same compound, the solubility (mole fraction) (in methanol, 283.15 K) was 6.11e-05, the solubility (mole fraction) (in methanol, 288.15 K) was 6.79e-05 and the solubility (mole fraction) (in methanol, 293.15 K) was 7.64e-05. For the same compound, the solubility (mole fraction) (in methanol, 298.15 K) was 8.61e-05, the solubility (mole fraction) (in methanol, 303.15 K) was 9.8e-05 and the solubility (mole fraction) (in methanol, 308.15 K) was 0.000111. It also gave a solubility (mole fraction) (in methanol, 313.15 K) of 0.00013, a solubility (mole fraction) (in methanol, 318.15 K) of 0.000154 and a solubility (mole fraction) (in methanol, 323.15 K) of 0.000182. For the same compound, the solubility (mole fraction) (in n-butanol, 278.15 K) was 0.000574, the solubility (mole fraction) (in n-butanol, 283.15 K) was 0.000636 and the solubility (mole fraction) (in n-butanol, 288.15 K) was 0.000706. The solubility (mole fraction) (in n-butanol, 293.15 K) was 0.000793, the solubility (mole fraction) (in n-butanol, 298.15 K) was 0.000903 and the solubility (mole fraction) (in n-butanol, 303.15 K) was 0.00103. For the same compound, the solubility (mole fraction) (in n-butanol, 308.15 K) was 0.00117, the solubility (mole fraction) (in n-butanol, 313.15 K) was 0.00135 and the solubility (mole fraction) (in n-butanol, 318.15 K) was 0.00154. The solubility (mole fraction) (in n-butanol, 323.15 K) was 0.00178, the solubility (mole fraction) (in n-propanol, 278.15 K) was 0.000448 and the solubility (mole fraction) (in n-propanol, 283.15 K) was 0.00051. It also gave a solubility (mole fraction) (in n-propanol, 288.15 K) of 0.000575, a solubility (mole fraction) (in n-propanol, 293.15 K) of 0.00067 and a solubility (mole fraction) (in n-propanol, 298.15 K) of 0.000756. It also gave a solubility (mole fraction) (in n-propanol, 303.15 K) of 0.000866, a solubility (mole fraction) (in n-propanol, 308.15 K) of 0.000987 and a solubility (mole fraction) (in n-propanol, 313.15 K) of 0.00113. The solubility (mole fraction) (in n-propanol, 318.15 K) was 0.0013, the solubility (mole fraction) (in n-propanol, 323.15 K) was 0.00151 and the solubility (mole fraction) (in water, 278.15 K) was 5.28e-08. The solubility (mole fraction) (in water, 283.15 K) was 5.74e-08, the solubility (mole fraction) (in water, 288.15 K) was 6.23e-08 and the solubility (mole fraction) (in water, 293.15 K) was 6.81e-08. For the same compound, the solubility (mole fraction) (in water, 298.15 K) was 7.47e-08, the solubility (mole fraction) (in water, 303.15 K) was 8.25e-08 and the solubility (mole fraction) (in water, 308.15 K) was 9.26e-08. The solubility (mole fraction) (in water, 313.15 K) was 1.04e-07, the solubility (mole fraction) (in water, 318.15 K) was 1.17e-07 and the solubility (mole fraction) (in water, 323.15 K) was 1.34e-07.
